Data published in ChEMBL document CHEMBL5329193, “Targeting Mycobacterium tuberculosis iron-scavenging tools: a recent update on siderophores inhibitors” (RSC Med Chem, 2023).
Converted amounts (≈) assume the structure as drawn.

Assays:
[1] = test system: Mycobacterium tuberculosis variant bovis; experiment: Antimycobacterial activity against Mycobacterium bovis BCG assessed as reduction in microbial growth incubated for 15 days by resazurin based reduction assay; assay type: functional; settings: 360 h, time 15 day
[2] = test system: Mycobacterium tuberculosis variant bovis; experiment: Antimycobacterial activity against Mycobacterium bovis BCG ATCC 35734 assessed as inhibition of bacterial growth incubated for 5 days by broth microdilution method; assay type: functional, organism-based; settings: BCG ATCC 35734, 120 h
[3] = test system: Mycobacterium tuberculosis variant bovis; experiment: Antitubercular activity against Mycobacterium bovis BCG assessed as bacterial growth inhibition incubated for 15 days by resazurin based reduction assay; assay type: functional; settings: 360 h, time 15 day

Molecule `N#Cc1cc(OCCOc2ccccc2)cc(-c2ccc(C(=O)O)o2)c1` has an MIC99 [1] of 63 µM and an IC50 [2] of 12.1 µM.

`N#Cc1cc(-c2ccc(C(=O)O)o2)cc(C(F)(F)F)c1` showed an MIC99 [3] of 125 µM (≈ 35.1 µg/mL).
